Patent publication US12281149B2, “Modulators of G-protein coupled receptors” (priority 2021, dated 2025)
*1 amine or outer side, *2 acyl side, *3 side chain or, on linkers, in order; H or OH if unused. Where a SMILES comes first, the peptide text is derived from it. Side-chain parts run from the residue outwards. [ ]: non-standard residue; d: D form. The star is where a group is joined. Isobutyryl(2-(3-CN-5-F-Ph)) = CC(C)(C(=O)*)c1cc(F)cc(C#N)c1; C20 diacid = O=C(O)CCCCCCCCCCCCCCCCCCC(=O)*; αMePhe(2-F) = C[C@](N)(Cc1ccccc1F)C(=O)O; γGlu = O=C(O)[C@H](CCC(=O)[*:2])N[*:1]; 2Thenoyl(5-Cl) = O=C(c1ccc(Cl)s1)*; X40 = CC(C)(C(=O)*)n1cc(Cl)cn1; X60 = O=C(C1(c2cccnc2)CCCC1)*; Ac4c = NC1(C(=O)O)CCC1; AEEA = NCCOCCOCC(=O)O; Aib = CC(C)(N)C(=O)O; GABA = NCCCC(=O)O; βAla = NCCC(=O)O

Experiments:
[1] = molecular target: GLP-1 receptor (Homo sapiens, UniProt P43220); test: HitHunter cAMP assay, GLP-1 receptor; type: cell-based; details: CHO cells, cAMP; normalized to maximum signal from GLP-1 (high) and DMSO (low); read-out: Emax GLP-1R
Chain of GLP-1 receptor (P43220 24-463): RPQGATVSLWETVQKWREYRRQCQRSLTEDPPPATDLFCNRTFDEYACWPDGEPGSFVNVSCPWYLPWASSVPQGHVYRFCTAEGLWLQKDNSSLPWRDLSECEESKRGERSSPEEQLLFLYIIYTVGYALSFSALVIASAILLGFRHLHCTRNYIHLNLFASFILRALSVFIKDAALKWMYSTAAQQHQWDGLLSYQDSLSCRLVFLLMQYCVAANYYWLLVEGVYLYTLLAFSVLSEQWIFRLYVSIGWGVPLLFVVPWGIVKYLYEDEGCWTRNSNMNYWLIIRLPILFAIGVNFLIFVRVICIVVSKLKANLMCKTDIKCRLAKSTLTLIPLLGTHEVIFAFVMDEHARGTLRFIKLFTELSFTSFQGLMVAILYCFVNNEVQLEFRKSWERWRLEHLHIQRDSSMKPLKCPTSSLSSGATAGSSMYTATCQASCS

[2] = molecular target: T1, GIP receptor (Homo sapiens, UniProt P48546); test: HitHunter cAMP assay, GIP receptor; type: cell-based; details: CHO cells, cAMP; normalized to maximum signal from GIP (high) and DMSO (low); read-out: Emax GIP-1R
T1 sequence (P48546 22-466): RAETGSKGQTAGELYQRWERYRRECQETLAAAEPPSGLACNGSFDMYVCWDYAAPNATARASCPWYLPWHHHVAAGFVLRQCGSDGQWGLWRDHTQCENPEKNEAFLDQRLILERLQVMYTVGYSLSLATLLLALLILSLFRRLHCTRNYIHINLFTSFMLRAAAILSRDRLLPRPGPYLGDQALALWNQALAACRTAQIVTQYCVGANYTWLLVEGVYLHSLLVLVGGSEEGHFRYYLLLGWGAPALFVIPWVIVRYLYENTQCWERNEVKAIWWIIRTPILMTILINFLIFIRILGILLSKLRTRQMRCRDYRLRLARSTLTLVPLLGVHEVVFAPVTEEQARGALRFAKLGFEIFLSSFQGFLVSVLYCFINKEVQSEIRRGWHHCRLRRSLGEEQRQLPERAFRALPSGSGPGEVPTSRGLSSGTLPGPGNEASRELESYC

Row | Emax [1] | Emax [2] | SMILES
1 | 104% | 102% | CC[C@H](C)[C@H](NC(=O)[C@H](CC(C)C)NC(=O)[C@H](Cc1c[nH]c2ccccc12)NC(=O)[C@H](CCC(N)=O)NC(=O)[C@@H](NC(=O)[C@H](Cc1ccccc1)NC(=O)[C@H](C)NC(=O)[C@H](CCCCNC(=O)COCCOCCNC(=O)COCCOCCNC(=O)CC[C@H](NC(=O)CCCCCCCCCCCCCCCCCCC(=O)O)C(=O)O)NC(=O)[C@H](CCC(N)=O)NC(=O)[C@H](C)NC(=O)[C@@H](NC(=O)[C@H](CCCCN)NC(=O)[C@H](CC(=O)O)NC(=O)[C@H](CC(C)C)NC(=O)C(C)(C)NC(=O)[C@@H](NC(=O)[C@H](CO)NC(=O)[C@H](Cc1ccc(O)cc1)NC(=O)[C@H](CC(=O)O)NC(=O)[C@H](CO)NC(=O)[C@@H](NC(=O)[C@](C)(Cc1ccccc1F)NC(=O)[C@@H](NC(=O)CNC(=O)[C@H](CCC(=O)O)NC(=O)CCNC(=O)C1(c2cccnc2)CCCC1)[C@@H](C)O)[C@@H](C)O)[C@@H](C)CC)[C@@H](C)CC)C(C)C)C(=O)N[C@@H](C)C(=O)NCC(N)=O [Compound 226] ({X60-βAla}-EGT[αMePhe(2-F)]TSDYSI[Aib]LDKIAQK([AEEA-AEEA-γGlu-C20 diacid])AFVQWLIAG-NH2; N-terminus and C-terminus assumed)
2 | 102% | 112% | CC[C@H](C)[C@H](NC(=O)[C@H](CC(C)C)NC(=O)[C@H](Cc1c[nH]c2ccccc12)NC(=O)[C@H](CCC(N)=O)NC(=O)[C@@H](NC(=O)[C@H](Cc1ccccc1)NC(=O)[C@H](C)NC(=O)[C@H](CCCCNC(=O)COCCOCCNC(=O)COCCOCCNC(=O)CC[C@H](NC(=O)CCCCCCCCCCCCCCCCCCC(=O)O)C(=O)O)NC(=O)[C@H](CCC(N)=O)NC(=O)[C@H](C)NC(=O)[C@@H](NC(=O)[C@H](CCCCN)NC(=O)[C@H](CC(=O)O)NC(=O)[C@H](CC(C)C)NC(=O)C(C)(C)NC(=O)[C@@H](NC(=O)[C@H](CO)NC(=O)[C@H](Cc1ccc(O)cc1)NC(=O)[C@H](CC(=O)O)NC(=O)[C@H](CO)NC(=O)[C@@H](NC(=O)[C@H](Cc1ccccc1)NC(=O)[C@@H](NC(=O)CNC(=O)[C@H](CCC(=O)O)NC(=O)CCNC(=O)C1(c2cccnc2)CCCC1)[C@@H](C)O)[C@@H](C)O)[C@@H](C)CC)[C@@H](C)CC)C(C)C)C(=O)N[C@@H](C)C(=O)NCC(N)=O [Compound 227] ({X60-βAla}-EGTFTSDYSI[Aib]LDKIAQK([AEEA-AEEA-γGlu-C20 diacid])AFVQWLIAG-NH2; N-terminus and C-terminus assumed)
3 | 100% | 105% | CC[C@H](C)[C@H](NC(=O)[C@H](CC(C)C)NC(=O)[C@H](Cc1c[nH]c2ccccc12)NC(=O)[C@H](CCC(N)=O)NC(=O)[C@@H](NC(=O)[C@H](Cc1ccccc1)NC(=O)[C@H](C)NC(=O)[C@H](CCCCNC(=O)COCCOCCNC(=O)COCCOCCNC(=O)CC[C@H](NC(=O)CCCCCCCCCCCCCCCCCCC(=O)O)C(=O)O)NC(=O)[C@H](CCC(N)=O)NC(=O)[C@H](C)NC(=O)[C@@H](NC(=O)[C@H](CCCCN)NC(=O)[C@H](CC(=O)O)NC(=O)[C@H](CC(C)C)NC(=O)C(C)(C)NC(=O)[C@@H](NC(=O)[C@H](CO)NC(=O)[C@H](Cc1ccc(O)cc1)NC(=O)[C@H](CC(=O)O)NC(=O)[C@H](CO)NC(=O)[C@@H](NC(=O)[C@](C)(Cc1ccccc1F)NC(=O)[C@@H](NC(=O)CNC(=O)[C@H](CCC(=O)O)NC(=O)CCNC(=O)C(C)(C)c1cc(F)cc(C#N)c1)[C@@H](C)O)[C@@H](C)O)[C@@H](C)CC)[C@@H](C)CC)C(C)C)C(=O)N[C@@H](C)C(=O)NCC(N)=O [Compound 228] ({Isobutyryl(2-(3-CN-5-F-Ph))-βAla}-EGT[αMePhe(2-F)]TSDYSI[Aib]LDKIAQK([AEEA-AEEA-γGlu-C20 diacid])AFVQWLIAG-NH2; N-terminus and C-terminus assumed)
4 | 102% | 107% | CC[C@H](C)[C@H](NC(=O)[C@H](CC(C)C)NC(=O)[C@H](Cc1c[nH]c2ccccc12)NC(=O)[C@H](CCC(N)=O)NC(=O)[C@@H](NC(=O)[C@H](Cc1ccccc1)NC(=O)[C@H](C)NC(=O)[C@H](CCCCNC(=O)COCCOCCNC(=O)COCCOCCNC(=O)CC[C@H](NC(=O)CCCCCCCCCCCCCCCCCCC(=O)O)C(=O)O)NC(=O)[C@H](CCC(N)=O)NC(=O)[C@H](C)NC(=O)[C@@H](NC(=O)[C@H](CCCCN)NC(=O)[C@H](CC(=O)O)NC(=O)[C@H](CC(C)C)NC(=O)C(C)(C)NC(=O)[C@@H](NC(=O)[C@H](CO)NC(=O)[C@H](Cc1ccc(O)cc1)NC(=O)[C@H](CC(=O)O)NC(=O)[C@H](CO)NC(=O)[C@@H](NC(=O)[C@H](Cc1ccccc1)NC(=O)[C@@H](NC(=O)CNC(=O)[C@H](CCC(=O)O)NC(=O)CCNC(=O)C(C)(C)c1cc(F)cc(C#N)c1)[C@@H](C)O)[C@@H](C)O)[C@@H](C)CC)[C@@H](C)CC)C(C)C)C(=O)N[C@@H](C)C(=O)NCC(N)=O [Compound 229] ({Isobutyryl(2-(3-CN-5-F-Ph))-βAla}-EGTFTSDYSI[Aib]LDKIAQK([AEEA-AEEA-γGlu-C20 diacid])AFVQWLIAG-NH2; N-terminus and C-terminus assumed)

Row | SMILES | Emax [1] | Emax [2]
5 | CC[C@H](C)[C@H](NC(=O)[C@H](CC(C)C)NC(=O)[C@H](Cc1c[nH]c2ccccc12)NC(=O)[C@H](CCC(N)=O)NC(=O)[C@@H](NC(=O)[C@H](Cc1ccccc1)NC(=O)[C@H](C)NC(=O)[C@H](CCCCNC(=O)COCCOCCNC(=O)COCCOCCNC(=O)CC[C@H](NC(=O)CCCCCCCCCCCCCCCCCCC(=O)O)C(=O)O)NC(=O)[C@H](CCC(N)=O)NC(=O)[C@H](C)NC(=O)[C@@H](NC(=O)[C@H](CCCNC(=N)N)NC(=O)[C@H](CC(=O)O)NC(=O)[C@H](CC(C)C)NC(=O)C(C)(C)NC(=O)[C@@H](NC(=O)[C@H](CO)NC(=O)[C@H](Cc1ccc(O)cc1)NC(=O)[C@H](CC(=O)O)NC(=O)[C@H](CO)NC(=O)[C@@H](NC(=O)[C@H](Cc1ccccc1)NC(=O)[C@@H](NC(=O)CNC(=O)[C@H](CCC(=O)O)NC(=O)CCNC(=O)C1(c2cccnc2)CCCC1)[C@@H](C)O)[C@@H](C)O)[C@@H](C)CC)[C@@H](C)CC)C(C)C)C(=O)N[C@@H](C)C(=O)NCC(=O)NCC(=O)N1CCC[C@H]1C(=O)N[C@@H](CO)C(=O)N[C@@H](CO)C(=O)NCC(=O)N[C@@H](C)C(=O)N1CCC[C@H]1C(=O)N1CCC[C@H]1C(=O)N1CCC[C@H]1C(=O)N[C@@H](CO)C(N)=O [Compound 243] ({X60-βAla}-EGTFTSDYSI[Aib]LDRIAQK([AEEA-AEEA-γGlu-C20 diacid])AFVQWLIAGGPSSGAPPPS-NH2; C-terminus assumed) | 109% | 110%
6 | CC[C@H](C)[C@H](NC(=O)[C@H](CC(C)C)NC(=O)[C@H](Cc1c[nH]c2ccccc12)NC(=O)[C@H](CCC(N)=O)NC(=O)[C@@H](NC(=O)[C@H](Cc1ccccc1)NC(=O)[C@H](C)NC(=O)[C@H](CCCCNC(=O)COCCOCCNC(=O)COCCOCCNC(=O)CC[C@H](NC(=O)CCCCCCCCCCCCCCCCCCC(=O)O)C(=O)O)NC(=O)[C@H](CCC(N)=O)NC(=O)[C@H](C)NC(=O)[C@@H](NC(=O)[C@H](CCCCN)NC(=O)[C@H](CC(=O)O)NC(=O)[C@H](CC(C)C)NC(=O)C(C)(C)NC(=O)[C@@H](NC(=O)[C@H](CO)NC(=O)[C@H](Cc1ccc(O)cc1)NC(=O)[C@H](CC(=O)O)NC(=O)[C@H](CO)NC(=O)[C@@H](NC(=O)[C@H](Cc1ccccc1)NC(=O)[C@@H](NC(=O)CNC(=O)[C@H](CCC(=O)O)NC(=O)CCCNC(=O)C1(NC(=O)c2ccc(Cl)s2)CCC1)[C@@H](C)O)[C@@H](C)O)[C@@H](C)CC)[C@@H](C)CC)C(C)C)C(=O)N[C@@H](C)C(=O)NCC(=O)NCC(=O)N1CCC[C@H]1C(=O)N[C@@H](CO)C(=O)N[C@@H](CO)C(=O)NCC(=O)N[C@@H](C)C(=O)N1CCC[C@H]1C(=O)N1CCC[C@H]1C(=O)N1CCC[C@H]1C(=O)N[C@@H](CO)C(N)=O [Compound 244] ({2Thenoyl(5-Cl)}-[Ac4c][GABA]EGTFTSDYSI[Aib]LDKIAQK([AEEA-AEEA-γGlu-C20 diacid])AFVQWLIAGGPSSGAPPPS-NH2; C-terminus assumed) | 109% | 120%
7 | CC[C@H](C)[C@H](NC(=O)[C@H](CC(C)C)NC(=O)[C@H](Cc1c[nH]c2ccccc12)NC(=O)[C@H](CCC(N)=O)NC(=O)[C@@H](NC(=O)[C@H](Cc1ccccc1)NC(=O)[C@H](C)NC(=O)[C@H](CCCCNC(=O)COCCOCCNC(=O)COCCOCCNC(=O)CC[C@H](NC(=O)CCCCCCCCCCCCCCCCCCC(=O)O)C(=O)O)NC(=O)[C@H](CCC(N)=O)NC(=O)[C@H](C)NC(=O)[C@@H](NC(=O)[C@H](CCCCN)NC(=O)[C@H](CC(=O)O)NC(=O)[C@H](CC(C)C)NC(=O)C(C)(C)NC(=O)[C@@H](NC(=O)[C@H](CO)NC(=O)[C@H](Cc1ccc(O)cc1)NC(=O)[C@H](CC(=O)O)NC(=O)[C@H](CO)NC(=O)[C@@H](NC(=O)[C@H](Cc1ccccc1)NC(=O)[C@@H](NC(=O)CNC(=O)[C@H](CCC(=O)O)NC(=O)CCNC(=O)C(C)(C)n1cc(Cl)cn1)[C@@H](C)O)[C@@H](C)O)[C@@H](C)CC)[C@@H](C)CC)C(C)C)C(=O)N[C@@H](C)C(=O)NCC(=O)NCC(=O)N1CCC[C@H]1C(=O)N[C@@H](CO)C(=O)N[C@@H](CO)C(=O)NCC(=O)N[C@@H](C)C(=O)N1CCC[C@H]1C(=O)N1CCC[C@H]1C(=O)N1CCC[C@H]1C(=O)N[C@@H](CO)C(N)=O [Compound 247] ({X40-βAla}-EGTFTSDYSI[Aib]LDKIAQK([AEEA-AEEA-γGlu-C20 diacid])AFVQWLIAGGPSSGAPPPS-NH2; C-terminus assumed) | 101% | 105%
